Values belong to the compound of their own block, whether it stands above or below them.
How the values were obtained:
[1] = tested on: human proximal tubule cells (RPTEC); assay: Drug induced loss of barrier integrity of human kidney proximal tubule (RPTEC), Kaplan-Meier plot; type: cell-based; settings: RPTEC tubules; increasing concentrations; imaged every hour for 60 hours; versus medium, vehicle control 1 and 2
Text: After eight days in culture >95% of the seeded tubules were shown leak-tight by addition of FITC-dextran 150 kDa to the medium in the luminal compartment. Medium in the tubes was replaced with medium containing increasing concentrations of the renal toxicant amphotecerin B and the fluorescent FITC-dextran. […] IC indicates an inhibitor cocktail of 3 efflux transporter inhibitors.

[2] = tested on: MDCK tubules; assay: Barrier integrity assay, MDCK tubules with staurosporin exposure (FITC-dextran 150 kDa leakage); type: cell-based, canine; settings: 0, 1, 4, 7 or 10 μM in top perfusion channel, imaged every hour for 15 hours
Description: MDCK (canine) cell line was seeded at 10*10^6 cells/mL in the top perfusion channel of a 400 μm 3-lane OrganoPlate® against a collagen I ECM (Cultrex, Amsbio, 3447-020-01, 4 mg/mL). 60 μL of medium was added to the medium inlet and outlet of the top perfusion channel. Plate was incubated on its side for 3 hours to allow cells to settle on top of the ECM. Three hours after seeding 60 μL medium was added to the medium inlet and outlet of the bottom perfusion channel and plate was placed on a rocker platform for continuous medium perfusion (angle 7°, tilt every 8 min). […] Volumes were 40 μL inlet/30 μL outlet in top perfusion channel, 0 μL inlet/0 μL outlet in the middle ECM channel, 20 μL inlet/20 μL outlet standard culture medium in the bottom perfusion channel. […]
Fluorescent signal intensity of the FITC-dextran 150 kDa was quantified in the top perfusion channel and in the gel channel of FIG. 4 using FIJI analysis software (Schindelin, J.; Arganda-Carreras, I. & Frise, E. et al. (2012), “Fiji: an open-source platform for biological-image analysis”, Nature methods 9(7): 676-682, PMID 22743772). […] The time-to-leakage value (e.g. 2 hours after compound addition) will have to be determined based on validation experiments to ensure maximal in vivo relevance. […]

[3] = tested on: Caco-2 tubules; assay: Time-to-leak barrier integrity assay, human gut tubule (Caco-2) exposed to staurosporin (TRITC-dextran 150 kDa); settings: Caco-2 tubes; imaged every hour for 13 hours; normalized TRITC-dextran fluorescence
Description: The Caco-2 cell line (Sigma, human colon carcinoma cells) was seeded in a 400 μm 3 lane OrganoPlate® at 10E6 cells/mL, placed on side for cell-ECM attachment for 2 hours, and then placed on a modified rocker platform for continuous medium perfusion. Three days after seeding leak-tightness of the Caco-2 tubules was tested by replacing the medium in the top perfusion channel with medium containing 0.25 mg/mL TRITC dextran 150 kDa. […] Medium in the top medium channel was replaced with medium with TRITC-dextran and increasing concentrations of aspirin. Plate was placed in the ImageXpress Micro XLS under temperature and CO2 controlled conditions and imaged for fluorescent (TRITC) signal every hour for 13 hours. A dose response curve can be extracted at every time point from the time-lapse of the exposed Caco-2 tubes. GraphPad Prism 6 (GraphPad Software Inc., La Jolla, Calif.) was used to fit the dose response curve based on nonlinear regression of the logarithm of the compound concentration versus the normalized fluorescence assuming a top and bottom plateau at 0 and 100% fluorescence.

[4] = tested on: LLC-PK1 tubules; assay: Barrier integrity assay, LLC-PK1 tubules with staurosporin exposure (FITC-dextran 150 kDa leakage); type: cell-based, pig; settings: 0, 1, 5 or 10 μM in top perfusion channel, imaged every 15 min for 16 hours
Description: The integrity of a cellular barrier, cultivated for example as described in FIGS. 1 and 2, can be probed by replacing the medium in the perfusion channel by medium containing 500 μg/mL FITC-dextran 150 kDa (Sigma, 46946). A) If the cellular barrier is leak-tight the fluorescent signal will be contained in the perfusion channel, whereas in the microfluidic chip with no cells, just ECM in the gel channel, the fluorescent signal will enter the ECM and will saturate within minutes. The fluorescent signal in the perfusion and gel channel can be monitored real time using time-lapse fluorescent microscopy, as for example with the ImageXpress Micro (Molecular Devices). B) Fluorescent signal intensity of the FITC-dextran 150 kDa was quantified in the top perfusion channel and in the gel channel using FIJI analysis software (Schindelin, J.; Arganda-Carreras, I. & Frise, E. et al. (2012), “Fiji: an open-source platform for biological-image analysis”, Nature methods 9(7): 676-682, PMID 22743772). C) The intensity of the gel channel was divided by the intensity of the top perfusion channel and the ratio was plotted against the time after start of fluorescent reporter addition. Without a cellular barrier the ECM is saturated within minutes after dye addition whereas a ratio close to zero is maintained as long as the cellular barrier is intact. […]

[5] = tested on: Caco-2 tubules; assay: Loss of barrier function of gut tubule (Caco-2) exposed to aspirin (TRITC-dextran 150 kDa); type: cell-based, human; settings: for loss of barrier integrity: imaged every hour for 24 hours
Text: FIG. 11 depicts the loss of barrier function of a gut tubule exposed to aspirin. […] However, the lack of data on concentrations with a maximum response hinders accurate EC50 estimation.

[6] = tested on: MDCK tubules; type: cell-based, canine
Text: The 3 lane OrganoPlate® offers the unique possibility to add a compound from only the apical or the basolateral side of the tubular structure. […] Actively transported compounds can have directionality in the trans-cellular transport, as is for example the situation in the renal proximal tubules, where moving compounds specifically from the apical side of the tube to the basolateral side, or the other way around, is part of the renal filtering function. This implies toxic compounds that are actively transported by the proximal tubule cells can have a different effect depending on the location of exposure. The anti-cancer drug cisplatin is taken up by cells by the OCT-2 transporter that is expressed on the basal side of the epithelial monolayer. MDCK cells were seeded in the top channel of a 200 μm 3 lane OrganoPlate® against a collagen I ECM at 10E6 cells/mL. Three days after seeding MDCK tubules were exposed to increasing concentrations of cisplatin from either the apical or basal side by replacing the medium either in the top medium channel, or in the bottom medium channel, with medium with cisplatin. At the start of the exposure the medium in the top channel was also supplied with a fluorescent leakage marker, FITC-dextran 150 kDa.

Compound: amphotecerin B
survival of tube integrity, exposed versus unexposed tubes [1]: significant difference

Compound: CN[C@@H]1C[C@H]2O[C@@](C)([C@@H]1OC)n1c3ccccc3c3c4c(c5c6ccccc6n2c5c31)C(=O)NC4 [staurosporin]
integrity of the MDCK barrier with increasing concentrations [2]: breaks at an earlier time point
dose response curve of barrier leakage with increasing exposure times [3]: shift towards lower compound concentrations
integrity of the LLC-PK1 barrier with increasing concentrations [4]: breaks at an earlier time point

loss of barrier integrity ([5]; 3.7 mM): loss of barrier integrity
exposure time at which a 50% effect was observed ([5]; 12 mM): 20 h
loss of barrier integrity ([5]; 12 mM (12.12 mM)): clear loss of barrier integrity
exposure time at which a 50% effect was observed ([5]; 40 mM): 10 h
loss of barrier integrity ([5]; 40 mM): clear loss of barrier integrity
Compound: CC(=O)Oc1ccccc1C(=O)O [aspirin]

Compound: N.N.[Cl][Pt][Cl] [cisplatin]
time-to-leak, tubes exposed from the basal side versus apical exposed tubes [6]: significantly earlier

— patent US11662342B2, “Barrier function measurements” (MIMETAS B.V., priority 2015, dated 2023)
